Key:
CYP3A = assay: Drug-drug interaction with midazolam (cohort G)
[1] = in vivo; cited from earlier work
Omicron = test system: Omicron; design: method as in PMID 35081300; details: cited from earlier work
[2] = midazolam 2 mg, ensitrelvir 750/250 mg

## Cc1ncc2n1-c1ccc(Cl)cc1C(c1ccccc1F)=NC2 [Midazolam, midazolam]
CYP3A; ensitrelvir 750/250 mg, day 6
  increase of AUC0-last of midazolam coadministered with ensitrelvir vs midazolam alone: 7.23 fold
  increase of Cmax of midazolam coadministered with ensitrelvir vs midazolam alone: 2.78 fold
CYP3A; human, in vivo
  half-life: 9.13 h
CYP3A; human, in vivo, 2 mg
  AUC(0-inf): 35.7 ng·h/mL
  AUC(0-t): 34.7 ng·h/mL
  Cmax: 16.2 ng/mL
  MRT: 4.11 h
  half-life: 4.36 h
  k el: 4.42e-05 s⁻¹
CYP3A; [2]
  AUC0-inf, GLS mean (90% CI) ratio (midazolam with ensitrelvir/midazolam alone): 8.8002 (6.7061/11.5484)
  AUC0-last, GLS mean (90% CI) ratio (midazolam with ensitrelvir/midazolam alone): 7.2293 (5.5817/9.3632)
  Cmax, GLS mean (90% CI) ratio (midazolam with ensitrelvir/midazolam alone): 2.7763 (2.3341/3.3022)
  MRT, GLS mean (90% CI) ratio (midazolam with ensitrelvir/midazolam alone): 2.8734 (2.5380/3.2530)
  t1/2,z, GLS mean (90% CI) ratio (midazolam with ensitrelvir/midazolam alone): 2.0954 (1.9490/2.2529)

## CC(C)(C)[C@H](NC(=O)C(F)(F)F)C(=O)N1C[C@H]2[C@@H]([C@H]1C(=O)N[C@H](C#N)C[C@@H]1CCNC1=O)C2(C)C [nirmatrelvir]
[1]
  elimination in humans: rapid

## CCC(CC)COC(=O)[C@H](C)N[P@](=O)(OC[C@H]1O[C@@](C#N)(c2ccc3c(N)ncnn23)[C@H](O)[C@@H]1O)Oc1ccccc1 [remdesivir]
Omicron
  efficacy against Omicron: efficacious

## CC(C)C(=O)OC[C@H]1O[C@@H](n2ccc(NO)nc2=O)[C@H](O)[C@@H]1O [molnupiravir]
Omicron
  efficacy against Omicron: efficacious

From article PMC9578392, “Safety, Tolerability, and Pharmacokinetics of the Novel Antiviral Agent Ensitrelvir Fumaric Acid, a SARS-CoV-2 3CL Protease Inhibitor, in Healthy Adults” (Antimicrobial Agents and Chemotherapy, 2022)
